Laboratory results as given in US20260158014A1, “METHODS OF ADMINISTERING VOXELOTOR” (Global Blood Therapeutics, Inc., priority 2021, published 2026).

What was measured:
patients with SCD = assay: HOPE Phase 3 trial: efficacy; assay type: in vivo, human
Protocol: The efficacy and safety of OXBRYTA in SCD was evaluated in HOPE, a Phase 3 randomized, double-blind, placebo-controlled, multicenter trial [NCT 03036813]. In this study, 274 patients were randomized to daily oral administration of OXBRYTA 1,500 mg (N=90), OXBRYTA 900 mg (N=92), or placebo (N=92). Patients were included if they had from 1 to 10 vaso-occlusive crisis (VOC) events within 12 months prior to enrollment and baseline hemoglobin (Hb) ≥5.5 to ≤10.5 g/dL. Eligible patients on stable doses of hydroxyurea for at least 90 days were allowed to continue hydroxyurea therapy throughout the study. Randomization was stratified by patients already receiving hydroxyurea (yes, no), geographic region (North America, Europe, Other), and age (12 to <17 years, 18 to 65 years). The trial excluded patients who received red blood cell (RBC) transfusions within 60 days and erythropoietin within 28 days of enrollment, had renal insufficiency, uncontrolled liver disease, were pregnant, or lactating.
The majority of patients had HbSS or HbS/beta^0-thalassemia genotype (90%) and were receiving background hydroxyurea therapy (65%). The median age was 24 years (range: 12 to 64 years); 46 (17%) patients were 12 to <17 years. Median baseline Hb was 8.5 g/dL (5.9 to 10.8 g/dL). One hundred and fifteen (42%) had 1 VOC event and 159 (58%) had 2 to 10 events within 12 months prior to enrollment. In the OXBRYTA 1,500 mg group, 63 (70%) patients completed the study through Week 72.
Efficacy was based on Hb response rate defined as a Hb increase of >1 g/dL from baseline to Week 24 in patients treated with OXBRYTA 1,500 mg versus placebo. […] No outlier subgroups were observed. The distribution of Hb change from baseline for individual patients completing 24 weeks of treatment with OXBRYTA 1,500 mg or placebo is depicted in FIG. 2.
Additional efficacy evaluation included change in Hb and percent change in indirect bilirubin and percent reticulocyte count from baseline to Week 24 (Table 15).

[1] = Population PK modeling of voxelotor in patients aged 4 to 11 years (part C); assay type: in vivo, human; details: 4-11 years, n=38; for % of patients with ≥20% Hb occupancy / % Hb occupancy: weight-based dosing; for % Hb occupancy: geometric mean (% CV) in Table 3
Protocol: Population PK modeling was used to determine the whole-blood and plasma PK parameters of voxelotor in the study population. The PK parameters included maximum whole blood or plasma concentration (Cmax), area under the concentration-time curve (AUC), terminal elimination half-life (t1/2), and percent Hb occupancy.
Statistical analyses: All efficacy and safety assessments were summarized with descriptive statistics. Population PK analyses using nonlinear mixed-effects modeling were performed to characterize voxelotor PK in plasma and whole blood.

P-gp = P-gp (Homo sapiens, UniProt P08183); assay: In vitro transporter study; assay type: in vitro ADME
P-gp, sequence (P08183 whole entry): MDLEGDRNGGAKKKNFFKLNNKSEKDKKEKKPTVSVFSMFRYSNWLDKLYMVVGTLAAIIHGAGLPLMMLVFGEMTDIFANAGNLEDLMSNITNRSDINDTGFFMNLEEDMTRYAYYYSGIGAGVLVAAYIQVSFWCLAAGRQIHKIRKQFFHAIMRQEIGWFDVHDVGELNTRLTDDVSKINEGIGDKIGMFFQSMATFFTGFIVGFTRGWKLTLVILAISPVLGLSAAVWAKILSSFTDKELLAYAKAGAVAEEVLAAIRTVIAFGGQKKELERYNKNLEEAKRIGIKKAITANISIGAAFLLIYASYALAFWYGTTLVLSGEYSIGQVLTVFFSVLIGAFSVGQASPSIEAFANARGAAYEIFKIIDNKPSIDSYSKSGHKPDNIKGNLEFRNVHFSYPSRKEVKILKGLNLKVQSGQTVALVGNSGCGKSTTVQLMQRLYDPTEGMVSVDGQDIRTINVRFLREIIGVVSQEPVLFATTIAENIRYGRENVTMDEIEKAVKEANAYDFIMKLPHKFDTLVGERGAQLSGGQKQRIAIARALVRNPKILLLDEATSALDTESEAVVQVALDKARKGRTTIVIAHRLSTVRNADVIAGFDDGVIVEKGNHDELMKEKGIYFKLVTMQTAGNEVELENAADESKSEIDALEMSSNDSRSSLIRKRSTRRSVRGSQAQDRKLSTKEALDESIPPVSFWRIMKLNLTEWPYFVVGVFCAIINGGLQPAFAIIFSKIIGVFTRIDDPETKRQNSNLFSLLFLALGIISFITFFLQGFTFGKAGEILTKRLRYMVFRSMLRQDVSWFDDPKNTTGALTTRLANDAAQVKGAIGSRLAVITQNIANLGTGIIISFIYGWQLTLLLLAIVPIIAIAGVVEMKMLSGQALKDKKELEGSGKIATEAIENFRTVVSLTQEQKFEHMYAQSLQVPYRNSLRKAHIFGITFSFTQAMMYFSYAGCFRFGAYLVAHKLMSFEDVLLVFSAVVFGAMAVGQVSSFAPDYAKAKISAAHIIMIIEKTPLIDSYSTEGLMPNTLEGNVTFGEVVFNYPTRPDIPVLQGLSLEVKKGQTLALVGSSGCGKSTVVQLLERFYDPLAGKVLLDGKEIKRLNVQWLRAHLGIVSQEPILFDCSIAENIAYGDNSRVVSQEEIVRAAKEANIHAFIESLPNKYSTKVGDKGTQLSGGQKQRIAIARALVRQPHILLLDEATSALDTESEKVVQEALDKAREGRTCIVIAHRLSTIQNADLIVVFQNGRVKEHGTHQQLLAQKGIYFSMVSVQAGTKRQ

CYP1A2 = CYP1A2 (Homo sapiens, UniProt P05177); assay: Clinical probe-substrate DDI study: caffeine; assay type: in vivo
CYP1A2, sequence (P05177 whole entry): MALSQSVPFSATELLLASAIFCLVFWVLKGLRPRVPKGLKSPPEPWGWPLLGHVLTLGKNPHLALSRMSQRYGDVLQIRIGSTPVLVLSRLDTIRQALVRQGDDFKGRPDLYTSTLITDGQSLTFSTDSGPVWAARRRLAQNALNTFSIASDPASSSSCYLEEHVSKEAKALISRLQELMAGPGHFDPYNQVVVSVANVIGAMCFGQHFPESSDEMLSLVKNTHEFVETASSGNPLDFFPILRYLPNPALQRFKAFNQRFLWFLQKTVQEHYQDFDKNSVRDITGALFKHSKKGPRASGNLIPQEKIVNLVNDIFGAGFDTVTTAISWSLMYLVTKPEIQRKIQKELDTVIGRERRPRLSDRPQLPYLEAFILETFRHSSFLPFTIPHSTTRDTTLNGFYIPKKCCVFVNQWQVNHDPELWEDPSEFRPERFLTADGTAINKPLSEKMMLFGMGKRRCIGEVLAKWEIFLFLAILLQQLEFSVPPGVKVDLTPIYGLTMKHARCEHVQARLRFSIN
Protocol: (§1) The effect of voxelotor on the pharmacokinetics (PK) of a single dose of caffeine, warfarin sodium, omeprazole, and midazolam hydrochloride, which are probe substrates for cytochrome P450 (CYP)1A2, CYP2C9, CYP2C19, and CYP3A4, respectively, were studied in healthy subjects. During Period 1, subjects received a single dose of caffeine 100 mg, warfarin sodium 10 mg+vitamin K 10 mg, omeprazole 20 mg, and midazolam hydrochloride 2 mg on Day 1. During Period 2, subjects received voxelotor 900 mg QD on Days 1 and 2 followed by 600 mg QD on Day 3, a single dose of caffeine 100 mg, warfarin sodium 10 mg+vitamin K 10 mg, omeprazole 20 mg, and midazolam hydrochloride 2 mg on Day 4, and voxelotor 600 mg QD on Days 4 through 7.
(§2) Whole blood and plasma concentrations of voxelotor and plasma concentrations of caffeine, paraxanthine, S-warfarin, omeprazole, 5-hydroxyomeprazole, midazolam, and 1-hydroxymidazolam were determined using validated assays.

patients treated = assay: Hypersensitivity reactions in treated patients; details: human, in vivo
CYP2D6 = target: T1, CYP2D6 (Homo sapiens, UniProt P10635); assay: Effect of voxelotor on CYP450 enzymes in vivo: CYP2D6
T1 construct: endogenous in cells; host or cells: human subjects (in vivo)
T1 sequence (P10635 whole entry): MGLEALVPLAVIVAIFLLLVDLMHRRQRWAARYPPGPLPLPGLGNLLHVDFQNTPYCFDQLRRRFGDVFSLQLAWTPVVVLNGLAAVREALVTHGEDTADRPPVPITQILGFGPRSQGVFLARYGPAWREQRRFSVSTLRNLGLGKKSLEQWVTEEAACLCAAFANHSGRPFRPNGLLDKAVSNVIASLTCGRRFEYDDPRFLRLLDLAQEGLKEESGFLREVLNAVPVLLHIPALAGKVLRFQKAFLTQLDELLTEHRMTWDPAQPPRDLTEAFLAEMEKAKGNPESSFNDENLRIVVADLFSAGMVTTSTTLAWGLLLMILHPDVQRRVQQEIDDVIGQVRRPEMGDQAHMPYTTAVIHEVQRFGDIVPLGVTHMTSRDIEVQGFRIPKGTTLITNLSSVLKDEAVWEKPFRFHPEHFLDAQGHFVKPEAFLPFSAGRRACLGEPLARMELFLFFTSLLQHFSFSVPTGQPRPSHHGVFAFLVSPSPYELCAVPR

QT interval = assay: Cardiac electrophysiology (QT interval); assay type: in vivo; details: plasma concentrations approximately 2-fold above therapeutic concentrations
RasH2 transgenic mice = assay: 26-week carcinogenicity study; assay type: in vivo, mouse; details: 26 weeks; oral 30, 150, or 500 mg/kg/day
OATP1B1 = OATP1B1 (Homo sapiens, UniProt Q9Y6L6); assay: In vitro transporter study; assay type: in vitro ADME
OATP1B1, sequence (Q9Y6L6 whole entry, species assumed): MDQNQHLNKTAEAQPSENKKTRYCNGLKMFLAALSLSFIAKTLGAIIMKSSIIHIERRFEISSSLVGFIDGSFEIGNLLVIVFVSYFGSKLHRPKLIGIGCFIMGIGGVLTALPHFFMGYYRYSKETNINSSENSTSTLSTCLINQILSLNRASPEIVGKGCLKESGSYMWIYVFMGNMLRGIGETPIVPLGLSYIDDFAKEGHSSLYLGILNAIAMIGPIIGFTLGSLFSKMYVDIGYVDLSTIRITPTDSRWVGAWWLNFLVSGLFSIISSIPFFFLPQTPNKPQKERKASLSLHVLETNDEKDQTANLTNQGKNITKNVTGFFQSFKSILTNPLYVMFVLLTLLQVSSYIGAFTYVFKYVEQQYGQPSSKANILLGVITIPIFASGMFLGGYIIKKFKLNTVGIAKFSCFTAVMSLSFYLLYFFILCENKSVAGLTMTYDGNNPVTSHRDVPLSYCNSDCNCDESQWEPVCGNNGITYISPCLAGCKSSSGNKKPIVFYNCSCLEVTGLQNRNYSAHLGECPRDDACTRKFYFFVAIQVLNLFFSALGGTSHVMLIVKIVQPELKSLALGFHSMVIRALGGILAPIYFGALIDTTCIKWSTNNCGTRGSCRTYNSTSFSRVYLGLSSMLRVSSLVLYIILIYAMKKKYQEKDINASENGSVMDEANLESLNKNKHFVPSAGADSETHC

[2] = 72-week population pharmacokinetic analysis in patients with SCD; assay type: in vivo, human
CYP2B6 = CYP2B6 (Homo sapiens, UniProt P20813); assay: In vitro CYP enzyme study; assay type: in vitro ADME
CYP2B6, sequence (P20813 whole entry, species assumed): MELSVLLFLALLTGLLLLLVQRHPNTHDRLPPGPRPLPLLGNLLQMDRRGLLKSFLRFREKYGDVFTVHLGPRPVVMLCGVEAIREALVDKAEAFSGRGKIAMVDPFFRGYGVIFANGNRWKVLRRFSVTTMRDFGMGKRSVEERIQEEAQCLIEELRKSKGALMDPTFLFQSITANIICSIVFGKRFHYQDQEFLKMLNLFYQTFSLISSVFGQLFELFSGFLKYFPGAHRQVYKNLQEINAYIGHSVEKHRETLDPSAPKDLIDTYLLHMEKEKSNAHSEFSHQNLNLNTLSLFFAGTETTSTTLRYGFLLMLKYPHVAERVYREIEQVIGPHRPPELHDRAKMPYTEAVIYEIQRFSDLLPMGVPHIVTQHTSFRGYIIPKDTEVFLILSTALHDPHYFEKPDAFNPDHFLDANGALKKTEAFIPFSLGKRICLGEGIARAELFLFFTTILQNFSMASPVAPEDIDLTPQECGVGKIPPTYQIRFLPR

CYP2C9 = target: T2, CYP2C9 (Homo sapiens, UniProt P11712); assay: Clinical probe-substrate DDI study: S-warfarin; assay type: in vivo
T2 construct: endogenous in cells; host or cells: healthy human subjects (in vivo)
T2 sequence (P11712 whole entry): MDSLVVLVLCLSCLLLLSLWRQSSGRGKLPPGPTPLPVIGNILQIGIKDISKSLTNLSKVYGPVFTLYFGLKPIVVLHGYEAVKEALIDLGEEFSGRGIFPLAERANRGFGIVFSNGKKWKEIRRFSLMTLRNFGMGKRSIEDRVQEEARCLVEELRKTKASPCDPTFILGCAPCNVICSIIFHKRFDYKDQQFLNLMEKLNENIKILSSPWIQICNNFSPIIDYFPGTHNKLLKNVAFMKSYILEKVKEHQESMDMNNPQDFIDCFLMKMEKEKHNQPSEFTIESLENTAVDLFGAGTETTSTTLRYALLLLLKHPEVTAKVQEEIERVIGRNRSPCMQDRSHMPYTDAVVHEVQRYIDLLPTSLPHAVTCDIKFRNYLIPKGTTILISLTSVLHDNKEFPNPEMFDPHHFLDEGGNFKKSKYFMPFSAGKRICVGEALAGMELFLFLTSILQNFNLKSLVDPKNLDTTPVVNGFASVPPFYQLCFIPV
Protocol: as §1, §2

[3] = tested on: CYP3A4, CYP3A5, CYP2B6, CYP2C19, CYP2C9, UGT1A1, and UGT1A9; assay: Metabolism, in vitro and in vivo studies; assay type: in vitro ADME
OATP1B3 = OATP1B3 (Homo sapiens, UniProt Q9NPD5); assay: In vitro transporter study; assay type: in vitro ADME
OATP1B3, sequence (Q9NPD5 whole entry, species assumed): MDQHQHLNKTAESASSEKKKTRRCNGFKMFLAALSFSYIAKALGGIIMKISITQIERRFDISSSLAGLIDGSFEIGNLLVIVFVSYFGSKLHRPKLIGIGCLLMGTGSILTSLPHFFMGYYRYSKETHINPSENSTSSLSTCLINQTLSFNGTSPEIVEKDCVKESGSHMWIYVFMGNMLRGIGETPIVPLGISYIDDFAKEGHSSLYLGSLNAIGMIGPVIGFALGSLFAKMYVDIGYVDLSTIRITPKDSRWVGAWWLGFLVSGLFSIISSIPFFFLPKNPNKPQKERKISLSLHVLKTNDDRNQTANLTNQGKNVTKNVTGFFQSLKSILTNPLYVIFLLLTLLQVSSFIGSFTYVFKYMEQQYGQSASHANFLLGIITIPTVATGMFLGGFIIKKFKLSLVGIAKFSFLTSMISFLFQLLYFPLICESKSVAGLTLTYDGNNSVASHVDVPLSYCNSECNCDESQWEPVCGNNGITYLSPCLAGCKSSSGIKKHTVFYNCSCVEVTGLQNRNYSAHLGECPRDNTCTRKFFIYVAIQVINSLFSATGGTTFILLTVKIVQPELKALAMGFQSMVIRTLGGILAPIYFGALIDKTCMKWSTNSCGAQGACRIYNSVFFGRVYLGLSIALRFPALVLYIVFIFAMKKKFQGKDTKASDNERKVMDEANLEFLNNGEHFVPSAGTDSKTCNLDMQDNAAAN

CC(C)n1nccc1-c1ncccc1COc1cccc(O)c1C=O [voxelotor, 2-hydroxy-6-((2-(1-isopropyl-1H-pyrazol-5-yl)pyridin-3-yl)methoxy)benzaldehyde]
adjusted mean change from baseline to Week 24 in hemoglobin (patients with SCD; 1,500 mg QD, N=90): 1.1 g/dL
adjusted mean percent change from baseline to Week 24 in indirect bilirubin (patients with SCD; 1,500 mg QD, N=90): −29.1%
adjusted mean percent change from baseline to Week 24 in percent reticulocyte count (patients with SCD; 1,500 mg QD, N=90): −18.0%
Hb response rate (Hb increase >1 g/dL from baseline to Week 24) (patients with SCD; 1,500 mg once daily, 46/90, adults and pediatric patients 12 years and older): 51%
% of patients with ≥20% Hb occupancy [1]: Approximately 76%
% of patients with ≥20% Hb occupancy ([1]; listed as Voxelotor): 76.3%
% Hb occupancy [1]: 26%
% Hb occupancy ([1]; listed as Voxelotor): 26.16 (32.2) %
Cmax ([1]; human, whole blood, oral, geometric mean (% CV), 600/900/1500 mg weight-based): 148 µg/mL
AUC(0-t) ([1]; human, whole blood, oral, geometric mean (% CV), 600/900/1500 mg weight-based, read-out: AUC0-24 h, whole blood): 3260 µg·h/mL
half-life ([1]; human, whole blood, oral, geometric mean (% CV), read-out: t1/2, whole blood (converted)): 27.2 h
P-gp inhibition (P-gp): not an inhibitor
substrate of P-gp (P-gp): not a substrate
effect of voxelotor on PK of CYP1A2 probe substrate caffeine (CYP1A2; healthy subjects, voxelotor 900/600 mg QD, caffeine 100 mg): no clinically meaningful effect
CYP1A2 inhibition in vivo (CYP1A2; human, in vivo): not
serious hypersensitivity reactions, patients treated (patients treated): < 1%
CYP2D6 inhibition in vivo (CYP2D6): not
QT interval prolongation (QT interval): does not prolong QT interval to any clinically relevant extent
carcinogenicity (RasH2 transgenic mice): not carcinogenic
OATP1B1 inhibition (OATP1B1): not an inhibitor
substrate of OATP1B1 (OATP1B1): not a substrate
AUC0-24 h, whole blood ([2]; 1,500 mg, geometric mean): 3,830 μg · hr/mL
Cmax, whole blood ([2]; 1,500 mg, geometric mean): 180 µg/mL
differences in PK based on age (12 to 59 years), sex, body weight (28 to 135 kg), mild to severe renal impairment ([2]; human, in vivo): No clinically significant differences
Cmax ([2]; human, plasma, oral, 1500 mg, 1,500 mg, geometric mean): 14 µg/mL
half-life ([2]; human, plasma, oral, 1500 mg, 1,500 mg, geometric mean, patients with SCD, read-out: Half-life (terminal elimination), plasma (converted)): 38.7 h
AUC(0-t) ([2]; human, plasma, oral, 1500 mg, 1,500 mg, geometric mean, read-out: AUC0-24 h, plasma): 278 µg·h/mL
Vd ([2]; human, plasma, oral, read-out: apparent volume of distribution of the central compartment): 333 L
apparent volume of distribution of the peripheral compartment ([2]; plasma): 72.3 L
apparent oral clearance ([2]; plasma, patients with SCD): 6.1 L/h
exposures in whole blood and plasma, pediatric patients 4 to <17 years vs adults ([2]; recommended dosage): similar
CYP2B6 induction (CYP2B6): inducer
CYP2B6 inhibition (CYP2B6): reversible and time-dependent inhibitor
effect of voxelotor on PK of CYP2C9 probe substrate S-warfarin (CYP2C9; healthy subjects, voxelotor 900/600 mg QD, warfarin sodium 10 mg): no clinically meaningful effect
CYP2C9 inhibition in vivo (CYP2C9; human, in vivo): not
enzymes mediating metabolism [3]: CYP3A4, CYP3A5, CYP2B6, CYP2C19, CYP2C9, UGT1A1, and UGT1A9
OATP1B3 inhibition (OATP1B3): not an inhibitor
substrate of OATP1B3 (OATP1B3): not a substrate
